Biological target: T1, His6-TEV-PPARγ-(234-505) (Homo sapiens, UniProt P37231)
T1 construct: The His6-TEV-PPARγ-(234-505) protein for assay was expressed and purified; TEV cleavage site (N); made in house
T1 sequence (P37231 234-505): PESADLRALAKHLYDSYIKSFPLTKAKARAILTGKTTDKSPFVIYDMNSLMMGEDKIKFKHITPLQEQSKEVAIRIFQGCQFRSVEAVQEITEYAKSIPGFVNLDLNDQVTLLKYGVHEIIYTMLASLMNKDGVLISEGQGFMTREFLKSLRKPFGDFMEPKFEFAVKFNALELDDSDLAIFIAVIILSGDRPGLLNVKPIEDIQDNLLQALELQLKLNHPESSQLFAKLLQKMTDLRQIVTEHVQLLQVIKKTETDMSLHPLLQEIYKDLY
Assay: TR-FRET Assay to Measure Co-R Peptide Recruitment to PPARγ
Format: biochemical
Conditions: Co-R peptide recruitment to PPARγ; read-out: TR-FRET AC50
Method in brief: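 His-tagged PPARγ (or controls) was preincubated with compound for 20 minutes at room temperature, then 5 nM anti-His terbium antibody and 200 nM FITC-labeled SMRT-ID2 corepressor peptide (final) were added for a further hour. TR-FRET signal was normalized to percent response using 500 nM T0070907 and DMSO controls.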

AC50, > 1 µM:
O=C(NC1CCOCC1)C1CCN(C(=O)c2cc(-c3ccncc3)[nH]n2)CC1 [N-(oxan-4-yl)-1-[5-(pyridin-4-yl)-1H-pyrazole-3-carbonyl]piperidine-4-carboxamide], CCC(CC)NC(=O)C1CCN(C(=O)c2cc(-c3ccncc3)[nH]n2)CC1 [N-(pentan-3-yl)-1-[5-(pyridin-4-yl)-1H-pyrazole-3-carbonyl]piperidine-4-carboxamide], O=C(Nc1cccnn1)C1CCN(C(=O)c2cc(-c3ccncc3)[nH]n2)CC1 [N-(pyridazin-3-yl)-1-[5-(pyridin-4-yl)-1H-pyrazole-3-carbonyl]piperidine-4-carboxamide], O=C(NCc1cnc2c(c1)CCC2)C1CCN(C(=O)c2cc(-c3ccncc3)[nH]n2)CC1 [N-({5H,6H,7H-cyclopenta[b]pyridin-3-yl}methyl)-1-[5-(pyridin-4-yl)-1H-pyrazole-3-carbonyl]piperidine-4-carboxamide], O=C(NC1(c2cccc(Cl)c2)CC1)C1CCN(C(=O)c2cc(-c3ccncc3)[nH]n2)CC1 [N-[1-(3-chlorophenyl)cyclopropyl]-1-[5-(pyridin-4-yl)-1H-pyrazole-3-carbonyl]piperidine-4-carboxamide], CN(C)CCNC(=O)C1CCN(C(=O)c2cc(-c3ccncc3)[nH]n2)CC1 [N-[2-(dimethylamino)ethyl]-1-[5-(pyridin-4-yl)-1H-pyrazole-3-carbonyl]piperidine-4-carboxamide], CN(C)CCCNC(=O)C1CCN(C(=O)c2cc(-c3ccncc3)[nH]n2)CC1 [N-[3-(dimethylamino)propyl]-1-[5-(pyridin-4-yl)-1H-pyrazole-3-carbonyl]piperidine-4-carboxamide], O=C(NCCCN1CCOCC1)C1CCN(C(=O)c2cc(-c3ccncc3)[nH]n2)CC1 [N-[3-(morpholin-4-yl)propyl]-1-[5-(pyridin-4-yl)-1H-pyrazole-3-carbonyl]piperidine-4-carboxamide], O=C(NC1CCC(CCO)CC1)C1CCN(C(=O)c2cc(-c3ccncc3)[nH]n2)CC1 (stereo not shown) [N-[4-(2-hydroxyethyl)cyclohexyl]-1-[5-(pyridin-4-yl)-1H-pyrazole-3-carbonyl]piperidine-4-carboxamide], Cn1cc(CNC(=O)C2CCN(C(=O)c3cc(-c4ccncc4)[nH]n3)CC2)cn1 [N-[(1-methyl-1H-pyrazol-4-yl)methyl]-1-[5-(pyridin-4-yl)-1H-pyrazole-3-carbonyl]piperidine-4-carboxamide], COc1cc(-c2cc(C(=O)N3CCC(C(=O)NCc4ccc5[nH]cnc5c4)CC3)n[nH]2)c(Cl)cn1 [N-[(1H-1,3-benzodiazol-5-yl)methyl]-1-[5-(5-chloro-2-methoxypyridin-4-yl)-1H-pyrazole-3-carbonyl]piperidine-4-carboxamide], Cc1ccc([C@@H](C)NC(=O)C2CCN(C(=O)c3cc(-c4ccncc4)[nH]n3)CC2)cc1 [N-[(1R)-1-(4-methylphenyl)ethyl]-1-[5-(pyridin-4-yl)-1H-pyrazole-3-carbonyl]piperidine-4-carboxamide], C[C@@H](NC(=O)C1CCN(C(=O)c2cc(-c3ccncc3)[nH]n2)CC1)c1ccc(C(C)(C)C)cc1 [N-[(1R)-1-(4-tert-butylphenyl)ethyl]-1-[5-(pyridin-4-yl)-1H-pyrazole-3-carbonyl]piperidine-4-carboxamide], C[C@@H](NC(=O)C1CCN(C(=O)c2cc(-c3ccncc3)[nH]n2)CC1)c1ccccc1 [N-[(1R)-1-phenylethyl]-1-[5-(pyridin-4-yl)-1H-pyrazole-3-carbonyl]piperidine-4-carboxamide], Cc1ccc([C@H](C)NC(=O)C2CCN(C(=O)c3cc(-c4ccncc4)[nH]n3)CC2)cc1 [N-[(1S)-1-(4-methylphenyl)ethyl]-1-[5-(pyridin-4-yl)-1H-pyrazole-3-carbonyl]piperidine-4-carboxamide], C[C@H](NC(=O)C1CCN(C(=O)c2cc(-c3ccncc3)[nH]n2)CC1)c1ccccc1 [N-[(1S)-1-phenylethyl]-1-[5-(pyridin-4-yl)-1H-pyrazole-3-carbonyl]piperidine-4-carboxamide], CC[C@H](NC(=O)C1CCN(C(=O)c2cc(-c3ccncc3)[nH]n2)CC1)c1ccccc1 [N-[(1S)-1-phenylpropyl]-1-[5-(pyridin-4-yl)-1H-pyrazole-3-carbonyl]piperidine-4-carboxamide], COc1cccc(CNC(=O)C2CCN(C(=O)c3cc(-c4ccncc4)[nH]n3)CC2)c1OC [N-[(2,3-dimethoxyphenyl)methyl]-1-[5-(pyridin-4-yl)-1H-pyrazole-3-carbonyl]piperidine-4-carboxamide], O=C(NCc1cc(Cl)ccc1Cl)C1CCN(C(=O)c2cc(-c3cccnc3)[nH]n2)CC1 [N-[(2,5-dichlorophenyl)methyl]-1-[5-(pyridin-3-yl)-1H-pyrazole-3-carbonyl]piperidine-4-carboxamide], O=C(NCc1cc(Cl)ccc1Cl)C1CCN(C(=O)c2cc(-c3ccncc3)[nH]n2)CC1 [N-[(2,5-dichlorophenyl)methyl]-1-[5-(pyridin-4-yl)-1H-pyrazole-3-carbonyl]piperidine-4-carboxamide], COc1ccc(OC)c(CNC(=O)C2CCN(C(=O)c3cc(-c4ccncc4)[nH]n3)CC2)c1 [N-[(2,5-dimethoxyphenyl)methyl]-1-[5-(pyridin-4-yl)-1H-pyrazole-3-carbonyl]piperidine-4-carboxamide], COc1cccc(OC)c1CNC(=O)C1CCN(C(=O)c2cc(-c3ccncc3)[nH]n2)CC1 [N-[(2,6-dimethoxyphenyl)methyl]-1-[5-(pyridin-4-yl)-1H-pyrazole-3-carbonyl]piperidine-4-carboxamide], Cc1cc(CNC(=O)C2CCN(C(=O)c3cc(-c4ccncc4)[nH]n3)CC2)cc(C)n1 [N-[(2,6-dimethylpyridin-4-yl)methyl]-1-[5-(pyridin-4-yl)-1H-pyrazole-3-carbonyl]piperidine-4-carboxamide], O=C(NCc1ccccc1Cl)C1CCN(C(=O)c2cc(-c3cccnc3)[nH]n2)CC1 [N-[(2-chlorophenyl)methyl]-1-[5-(pyridin-3-yl)-1H-pyrazole-3-carbonyl]piperidine-4-carboxamide], O=C(NCc1ccccc1Cl)C1CCN(C(=O)c2cc(-c3ccncc3)[nH]n2)CC1 [N-[(2-chlorophenyl)methyl]-1-[5-(pyridin-4-yl)-1H-pyrazole-3-carbonyl]piperidine-4-carboxamide], O=C(NCc1ccccc1F)C1CCN(C(=O)c2cc(-c3ccncc3)[nH]n2)CC1 [N-[(2-fluorophenyl)methyl]-1-[5-(pyridin-4-yl)-1H-pyrazole-3-carbonyl]piperidine-4-carboxamide], COc1c(C)cccc1CNC(=O)C1CCN(C(=O)c2cc(-c3ccncc3)[nH]n2)CC1 [N-[(2-methoxy-3-methylphenyl)methyl]-1-[5-(pyridin-4-yl)-1H-pyrazole-3-carbonyl]piperidine-4-carboxamide], COc1nc(C)cc(C)c1CNC(=O)C1CCN(C(=O)c2cc(-c3ccncc3)[nH]n2)CC1 [N-[(2-methoxy-4,6-dimethylpyridin-3-yl)methyl]-1-[5-(pyridin-4-yl)-1H-pyrazole-3-carbonyl]piperidine-4-carboxamide], COc1ccc(C)cc1CNC(=O)C1CCN(C(=O)c2cc(-c3ccncc3)[nH]n2)CC1 [N-[(2-methoxy-5-methylphenyl)methyl]-1-[5-(pyridin-4-yl)-1H-pyrazole-3-carbonyl]piperidine-4-carboxamide], COc1ccccc1CNC(=O)C1CCN(C(=O)c2cc(-c3ccncc3)[nH]n2)CC1 [N-[(2-methoxyphenyl)methyl]-1-[5-(pyridin-4-yl)-1H-pyrazole-3-carbonyl]piperidine-4-carboxamide], Cc1cc(CNC(=O)C2CCN(C(=O)c3cc(-c4ccncc4)[nH]n3)CC2)ccn1 [N-[(2-methylpyridin-4-yl)methyl]-1-[5-(pyridin-4-yl)-1H-pyrazole-3-carbonyl]piperidine-4-carboxamide], O=C(NCc1ccc2c(c1)OCO2)C1CCCN(C(=O)c2cc(-c3ccncc3)[nH]n2)C1 (stereo not shown) [N-[(2H-1,3-benzodioxol-5-yl)methyl]-1-[5-(pyridin-4-yl)-1H-pyrazole-3-carbonyl]piperidine-3-carboxamide], O=C(NCc1ccc2c(c1)OCO2)C1CCN(C(=O)c2cc(-c3ccncc3)[nH]n2)CC1 [N-[(2H-1,3-benzodioxol-5-yl)methyl]-1-[5-(pyridin-4-yl)-1H-pyrazole-3-carbonyl]piperidine-4-carboxamide], C[C@@H](CNC(=O)C1CCN(C(=O)c2cc(-c3ccncc3)[nH]n2)CC1)c1ccccc1 [N-[(2R)-2-phenylpropyl]-1-[5-(pyridin-4-yl)-1H-pyrazole-3-carbonyl]piperidine-4-carboxamide]

— patent US12606541B2, “PPARg modulators and methods of use” (Eisai R&D Management Co., Ltd., priority 2020, dated 2026)
